Earlier results in patent publication US20070196413A1, “Surfactant enhanced quick release pesticide granules” (priority 2003, published 2007).
Where two headings read alike, the source gives them in different places.

## CNC(=O)CSP(=S)(OC)OC [Cygon, dimethoate]
Mixed in water of pH 9
  Time to lose 50 percent of pest control power: 48 min
pH of 6
  Time to lose 50 percent of pest control power: 720 min
